Legend:
[1] = target: T1, mouse GLP2R (Mus musculus, UniProt Q5IXF8); assay: In vitro potency on mouse GLP2R (cAMP, 665/615 ratio); assay type: cell-based; conditions: read-out: mGLP-2R IC50
T1 sequence (Q5IXF8 1-512): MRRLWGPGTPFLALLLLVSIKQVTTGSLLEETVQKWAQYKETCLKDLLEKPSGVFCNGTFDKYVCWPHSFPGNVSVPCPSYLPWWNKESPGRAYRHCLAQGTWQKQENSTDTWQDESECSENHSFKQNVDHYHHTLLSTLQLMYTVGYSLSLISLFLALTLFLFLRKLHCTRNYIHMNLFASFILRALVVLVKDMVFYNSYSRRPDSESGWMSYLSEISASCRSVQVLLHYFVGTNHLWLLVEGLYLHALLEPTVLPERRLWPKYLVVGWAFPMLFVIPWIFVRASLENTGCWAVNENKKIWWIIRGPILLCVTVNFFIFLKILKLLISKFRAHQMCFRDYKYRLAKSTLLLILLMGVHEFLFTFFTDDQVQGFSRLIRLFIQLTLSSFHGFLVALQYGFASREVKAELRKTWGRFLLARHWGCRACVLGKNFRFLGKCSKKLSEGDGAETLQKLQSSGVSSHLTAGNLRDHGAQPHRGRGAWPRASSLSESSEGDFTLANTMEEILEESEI
From the text: To determine the potency of the long-acting GLP2R agonists against mouse GLP2R.

[2] = tested on: mouse model of acute colitis; assay: DSS-induced acute colitis in C57BL/6 mice (GLP2-2G-10Nle-1K-EX4-K5)
Experimental: (§1) Each group contained 6 mice, except for group A, which contained 4.
(§2) The body weight was monitored daily. If animals lost more than 20% of their bodyweight, they were euthanized. […] On day 11, animals were euthanized, and a necropsy was performed. The terminal bleed was collected into a heparinized collection tube and processed into plasma. The small intestine and colon were collected to measure weight and length. GI tissues were collected for histology.

[3] = tested on: chronic DSS-induced colitis model; assay: Chronic DSS-induced colitis in C57BL/6 mice (GLP2-2G-10Nle-1-Ex4-L5A); assay type: in vivo; conditions: teduglutide 0.5 mg/kg BID
Experimental: Treatment was administered either subcutaneously (S) or intraperitoneally (IP) either once daily (QD) or twice daily (BID). […] Bodyweight was monitored 3 times a week. […] At day 33, a necropsy was performed, and measurements were taken. These measurement included collecting terminal bleed; dissecting out the small intestine; measuring the length and weight of the small intestine; and recording the length and weight of the empty large intestine.

[4] = tested on: mouse model of chronic colitis; assay: Chronic DSS-induced colitis in C57BL/6 mice (GLP2-2G-1-EX4-L5A); assay type: in vivo; conditions: 0.1 and 0.3 mg/kg SC QD 7 days, teduglutide 0.3 mg/kg SC QD
Experimental: Animals were treated daily for 7 days during the last DSS-induction cycle. Treatment was administered either subcutaneously (S) or intraperitoneally (IP) either once daily (QD) or twice daily (BID).
Bodyweight was monitored 3 times a week. Pharmacokinetic collection occurred 3 and 4 days prior to necropsy. At day 33, a necropsy was performed, and measurements were taken. These measurement included collecting terminal bleed; dissecting out the small intestine; measuring the length and weight of the small intestine; and recording the length and weight of the empty large intestine.

[5] = target: T2, cyno monkey GLP2R (Macaca fascicularis, UniProt G1E7B0); assay: In vitro potency on cyno monkey GLP2R (665/615 ratio); assay type: cell-based
T2 sequence (G1E7B0 1-553): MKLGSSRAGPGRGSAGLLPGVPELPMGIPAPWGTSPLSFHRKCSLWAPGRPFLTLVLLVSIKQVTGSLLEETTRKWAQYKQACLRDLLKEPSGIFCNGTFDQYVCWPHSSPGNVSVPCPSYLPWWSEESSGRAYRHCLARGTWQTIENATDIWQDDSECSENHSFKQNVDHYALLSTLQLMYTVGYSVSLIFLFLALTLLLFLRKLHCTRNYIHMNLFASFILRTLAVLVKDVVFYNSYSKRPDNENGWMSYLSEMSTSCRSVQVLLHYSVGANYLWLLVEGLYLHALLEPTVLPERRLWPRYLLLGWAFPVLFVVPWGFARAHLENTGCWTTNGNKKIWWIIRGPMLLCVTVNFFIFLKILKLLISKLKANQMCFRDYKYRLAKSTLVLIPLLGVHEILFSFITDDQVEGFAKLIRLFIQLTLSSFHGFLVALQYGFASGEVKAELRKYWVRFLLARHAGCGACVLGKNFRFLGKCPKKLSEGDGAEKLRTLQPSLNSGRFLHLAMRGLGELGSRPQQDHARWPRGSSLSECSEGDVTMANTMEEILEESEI

[6] = tested on: mouse model of acute colitis; conditions: in vivo
Experimental: as §1, §2

[7] = tested on: mouse model of environmental enteric dysfunction (EED); assay: Weaning undernutrition mouse model of environmental enteric dysfunction (EED); assay type: in vivo, mice
Experimental: A weaning undernutrition model was used to assess the ability of GLP2-2G-10Nle-1K-EX4-K5 to treat environmental enteric dysfunction (EED). All dams were placed on an isocaloric Northeast Brazil (Regional Basic Diet—RBD), which was moderately deficient in protein, fat and minerals when their pups were 10 days old. At weaning (3 weeks of age), pups were placed on either a standard control diet (CD) or continued on RBD. At 4 weeks of age, weanlings were given drug or placebo (0.1 mg/kg formulated in PBS (vehicle)) once a day subcutaneously for 2-3 weeks. Bodyweight and food consumption were measured twice weekly. Stool was collected at weaning, 6 weeks of age, and 8 weeks of age for calorimetry and microbiome. Oral FITC-dextran was used as a measurement of barrier function. At 6 weeks of age, mice were euthanized, and jejunal tissue was collected for morphology, immunohistochemistry, and for chamber analysis of transmucosal resistance and permeability.

[8] = target: GIPR; assay: cell-based or functional assay
[9] = target: GLP-1R; assay: cell-based or functional assay
[10] = target: GCGR; assay: cell-based or functional assay
[11] = Pharmacokinetics of peptides in mice (plasma levels by GLP-2R cell based reporter assay); conditions: mouse, in vivo
Experimental: Briefly, female CD-1 mice (n=4 per group) from Charles River Laboratory were fasted overnight and administrated with 100 μL of each peptide in phosphate buffered saline by intravenous (iv) or subcutaneous (sc) route. Food was provided to mice immediately after bleeding at 30 min. […] The resulting supernatant plasma were then stored at −80° C. for peptide concentration determination. The concentrations of peptides in plasma at each time point were determined by in vitro cell based activity assay. […] At the same time, the same peptides were used to obtain standard curves and parameters for Bottom, Top, EC50, and Hill slope. Relative light unit (RLU) for each plasma sample was used to calculate the peptide concentrations in plasma (nmol/L), using parameters derived from the standard curve (RLU=Bottom+(Top−Bottom)/(1+10((log EC50−Conc)Hill slope)). Peptide concentrations in plasma were obtained and plotted against time points to obtain in vivo half-life of each peptide, using WinNonLin Phoenix software (Pharsight Corp, St. Louis, Mo.).

[12] = target: mouse GLP2R (mouse) (UniProt Q5IXF8); assay: cell-based or functional assay
[13] = target: cyno monkey GLP2R (cyno monkey) (UniProt G1E7B0); assay: cell-based or functional assay

With `CC[C@H](C)[C@H](NC(=O)[C@H](Cc1ccccc1)NC(=O)[C@H](CC(=O)O)NC(=O)[C@H](CCCNC(=N)N)NC(=O)[C@H](C)NC(=O)[C@H](C)NC(=O)[C@H](CC(C)C)NC(=O)[C@H](CC(N)=O)NC(=O)[C@H](CC(=O)O)NC(=O)[C@H](CC(C)C)NC(=O)[C@@H](NC(=O)[C@@H](NC(=O)[C@H](CC(N)=O)NC(=O)[C@H](CCSC)NC(=O)[C@H](CCC(=O)O)NC(=O)[C@H](CC(=O)O)NC(=O)[C@H](CO)NC(=O)[C@H](Cc1ccccc1)NC(=O)[C@H](CO)NC(=O)CNC(=O)[C@H](CC(=O)O)NC(=O)CNC(=O)[C@@H](N)Cc1c[nH]cn1)[C@@H](C)O)[C@@H](C)CC)C(=O)N[C@@H](CC(N)=O)C(=O)N[C@@H](Cc1c[nH]c2ccccc12)C(=O)N[C@@H](CC(C)C)C(=O)N[C@H](C(=O)N[C@@H](CCC(N)=O)C(=O)N[C@H](C(=O)N[C@@H](CCCCN)C(=O)N[C@H](C(=O)N[C@H](C(=O)N[C@@H](CC(=O)O)C(=O)O)[C@@H](C)O)[C@@H](C)CC)[C@@H](C)O)[C@@H](C)CC` [Teduglutide, teduglutide, reference compound] the IC50 [1] was 0.07 nM, the bodyweight over time ([2]; 3% DSS 5 days, daily treatment 11 days, K5 0.1-1 mg/kg SC, teduglutide 0.5 mg/kg SC, cyclosporin 20 mg/kg IP) was “did not exhibit significant changes in bodyweight” and the “small intestine length and weight” value ([2]; groups C-F vs untreated mice) was “significantly increased”. For the same compound, the colon length ([2]; groups D-F (K5 0.3, 1 mg/kg; teduglutide 0.5 mg/kg) vs group B) was “significantly increased”, the villus height ([2]; jejunum, groups C-F vs untreated mice (groups A-B)) was “significant increase” and the colon length ([3]; doses of 0.1 mg/kg and higher, vs group B) was “significantly increased”. The small intestine length ([3]; doses of 0.1 mg/kg and higher, vs untreated) was “significant increases”, the colon weight ([3]; doses of 0.3 mg/kg or higher, vs untreated) was “increased” and the bodyweight loss [4] was “did not show the same loss in percent of bodyweight”. For the same compound, the EC50 [5] was 0.009 nM, the “detectability in plasma after dosing” value [6] was “not detectable after 3 hours post treatment” and the “intestinal permeability (FITC-dextran)” value ([7]; CD females vs untreated) was “significant decreases in permeability”. The “small intestine wet body weight/body weight” value ([7]; CD females vs untreated) was “significant increase”, the crypt depths ([7]; CD males vs untreated) was “longer crypt depths” and the “intestinal permeability (FITC-dextran)” value ([7]; CD males vs untreated) was “trend towards decreased permeability”. The “small intestine wet body weight/body weight” value ([7]; CD males vs untreated) was “significant increase”, the villus heights ([7]; CD males vs untreated) was “significantly longer villus heights” and the “intestinal permeability (FITC-dextran)” value ([7]; RBD females or RBD males vs untreated) was “did not significantly affect the permeability”. The “small intestine wet body weight/body weight” value ([7]; RBD males vs untreated) was “significant increase”, the “length of the small intestine” value ([7]; animals weaned to CD and to RBD diet, vs untreated) was “significant increase” and the weight gain ([7]; male and female RBD mice weaned to CD, 0.1 mg/kg SC once a day) was “trends towards greater weight gain”. For the same compound, the weight ([7]; male and female mice weaned to RBD, 0.1 mg/kg SC once a day) was “trends towards worsening weight”.
In the case of GLP-2 (ligand), the IC50 [nM] (665/615 ratio, free cAMP) [8] is reported as > 500 nM, the IC50 [nM] (665/615 ratio, free cAMP) [9] is reported as > 500 nM and the IC50 [nM] (665/615 ratio, free cAMP) [10] is reported as > 500 nM.
Compound `CC[C@H](C)[C@@H]1NC(=O)[C@H](Cc2ccccc2)NC(=O)[C@H](CC(=O)O)NC(=O)[C@H](CCCNC(=N)N)NC(=O)[C@H](C)NC(=O)[C@H](C)NC(=O)[C@@H](NC(=O)[C@H](CC(N)=O)NC(=O)[C@H](CC(=O)O)NC(=O)[C@H](CC(C)C)NC(=O)[C@@H](NC(=O)[C@@H](NC(=O)[C@H](CC(N)=O)NC(=O)[C@H](CCSC)NC(=O)[C@H](CCC(=O)O)NC(=O)[C@H](CC(=O)O)NC(=O)[C@H](CO)NC(=O)[C@H](Cc2ccccc2)NC(=O)[C@H](CO)NC(=O)CNC(=O)[C@H](CC(=O)O)NC(=O)CNC(=O)[C@@H](N)Cc2c[nH]cn2)[C@@H](C)O)[C@@H](C)CC)CCCCNC(=O)CN(C(=O)CCNC(=O)CCOCCOCCNC(=O)CCOCCOCCNC(=O)CC[C@H](NC(=O)CCCCCCCCCCCCCCCCC(=O)O)C(=O)O)CC(=O)NCCCC[C@@H](C(=O)N[C@@H](Cc2c[nH]c3ccccc23)C(=O)N[C@@H](CC(C)C)C(=O)N[C@H](C(=O)N[C@@H](CCC(N)=O)C(=O)N[C@H](C(=O)N[C@@H](CCCCN)C(=O)N[C@H](C(=O)N[C@H](C(=O)N[C@@H](CC(=O)O)C(=O)N2CCC[C@H]2C(=O)N[C@@H](CO)C(=O)N[C@@H](CO)C(=O)NCC(=O)N[C@@H](C)C(=O)N2CCC[C@H]2C(=O)N2CCC[C@H]2C(=O)N2CCC[C@H]2C(=O)N[C@@H](CO)C(N)=O)[C@@H](C)O)[C@@H](C)CC)[C@@H](C)O)[C@@H](C)CC)NC1=O` [Conjugate 17] has a half-life ([11]; 10 nmol/kg, read-out: Mouse T½/h (converted)) of 8.53 ± 0.044 h and a clearance ([11]; CD1 female mice, 10 nmol/kg iv or sc, read-out: Mouse CL/(mL/h/kg) (converted)) of 14.4 mL/h/kg.
With Teduglutide (peptide) the IC50 [nM] (665/615 ratio, free cAMP) [12] was 0.07 nM and the EC50 [nM] (ratio of 665 to 615) [13] was 0.009 nM.

From patent US20230057847A1, “GLP2 RECEPTOR AGONISTS AND METHODS OF USE” (The Scripps Research Institute, priority 2019, published 2023)
